Test systems include A498; BT-549; CCRF-CEM; COLO 205; HCC 2998; IGROV-1; KM12; M14; NCI-H522; RPMI-8226; SF-268; SF-295; SK-MEL-28; SK-MEL-2; SK-MEL-5; SK-OV-3; SR; MCF7; MDA-N.
Common to all, as to test: NCI anticancer screen, dose series, 48 h

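Protocol summary: plate cells (96-well), add compound at 5 concentrations, incubate 48 h, interpolate endpoints linearly. At the GI50, growth is halved.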 Active and inactive are the calls of the source. No stated cut-off is given here; in the data, active = GI50 up to about 1.1 µM and inactive = higher. Where only a bound is given, the exact number is not on record here.

The source of these data is ChEMBL document CHEMBL1201862, “PubChem BioAssay data set” (2004).

For the compound `Cc1noc(NC(=O)Nc2ccccc2F)c1C#N`, the GI50 with A498 is > 35 µM (inactive); with BT-549 it was > 100 µM (inactive); in the assay on CCRF-CEM, 70.6 µM (inactive); in the assay with COLO 205 it was > 100 µM (inactive); in the assay with HCC 2998 it was 2.12 µM (inactive); with IGROV-1 it was > 91.6 µM (inactive). Moreover, the GI50 with KM12 is > 100 µM (inactive); in the assay on M14, > 24.4 µM (inactive); in the assay with NCI-H522, 7.93 µM (inactive); in the assay with RPMI-8226 it was > 74.8 µM (inactive); in the assay with SF-268 it was 12.4 µM (inactive); with SF-295 it was 41.5 µM (inactive). The GI50 in the assay with SK-MEL-28 was > 100 µM (inactive); with SK-MEL-2, > 39.8 µM (inactive); in the assay with SK-MEL-5, 45.7 µM (inactive); in the assay with SK-OV-3 it was > 100 µM (inactive); with SR, 21.4 µM (inactive).
With `Cc1ccc(NC(=O)C(=O)C2C(=O)C3=C(CC2(C)C)NC2C=CC=CC2S3)c(C)c1` (configuration not stated), the GI50 is > 100 µM (inactive) with BT-549; > 100 µM (inactive) in the assay with CCRF-CEM; > 100 µM (inactive) in the assay on COLO 205; > 100 µM (inactive) with HCC 2998; 49.3 µM (inactive) in the assay on IGROV-1; > 100 µM (inactive) in the assay with KM12. Moreover, the GI50 with MCF7 was > 100 µM (inactive); in the assay with MDA-N, > 100 µM (inactive); in the assay on NCI-H522, > 100 µM (inactive); with SF-268 it was 36.8 µM (inactive); in the assay with SF-295, > 100 µM (inactive); in the assay with SK-MEL-28 it was > 100 µM (inactive). Also, the figures for the GI50 in the assay on SK-MEL-2, in the assay on SK-MEL-5 and in the assay on SK-OV-3 were > 100 µM (inactive), 85.1 µM (inactive) and > 100 µM (inactive), respectively.
Consider `COc1ccc(C(CC(=O)c2ccccc2)C(=O)c2ccc3c(c2)OCO3)cc1` (configuration not stated), for which the GI50 in the assay with A498, in the assay on CCRF-CEM, in the assay with COLO 205, with HCC 2998, in the assay with IGROV-1 and in the assay on KM12 was > 100 µM (inactive) throughout. Further, the GI50 in the assay on M14, in the assay with MCF7, in the assay on MDA-N, with RPMI-8226, in the assay on SF-268 and in the assay with SF-295 was > 100 µM (inactive) throughout. Also, the GI50 with SK-MEL-28, in the assay with SK-MEL-2, in the assay with SK-MEL-5, with SK-OV-3 and in the assay on SR was > 100 µM (inactive) throughout.
For `CN1C(=O)c2ccccc2C(O)(c2ccccc2)C1(O)c1ccccc1` (configuration not stated), the GI50 in the assay with A498 is > 100 µM (inactive); in the assay on BT-549, 81.1 µM (inactive); with CCRF-CEM, > 100 µM (inactive); in the assay on COLO 205, > 100 µM (inactive); in the assay on HCC 2998 it was 87.9 µM (inactive); in the assay with IGROV-1, 58.5 µM (inactive). Also, the GI50 was > 100 µM (inactive) in the assay with KM12; > 100 µM (inactive) in the assay on M14; > 100 µM (inactive) in the assay with MDA-N; > 100 µM (inactive) in the assay on NCI-H522; 56.4 µM (inactive) in the assay with RPMI-8226; 55.5 µM (inactive) in the assay with SF-268. Further, the GI50 with SF-295 was > 100 µM (inactive); in the assay with SK-MEL-28, > 100 µM (inactive); with SK-MEL-2, > 100 µM (inactive); in the assay on SK-MEL-5, 74.6 µM (inactive); with SK-OV-3, 52.4 µM (inactive); in the assay on SR, 43 µM (inactive).
Turning to `CC(C)Oc1cccc(N2C(NCCc3c[nH]c4ccccc34)=Nc3ccncc3S2(=O)=O)c1`, the GI50 in the assay with A498 was 9.31 µM (inactive); in the assay with BT-549, 61.1 µM (inactive); with CCRF-CEM it was 6.15 µM (inactive); in the assay on COLO 205 it was 1.79 µM (inactive); with HCC 2998, 24.4 µM (inactive); in the assay with IGROV-1 it was 41.7 µM (inactive). Also, the GI50 is 30.5 µM (inactive) in the assay with KM12; 10.4 µM (inactive) in the assay on M14; 4.73 µM (inactive) in the assay with MCF7; 7.01 µM (inactive) in the assay with NCI-H522; 5.51 µM (inactive) with RPMI-8226; 15.7 µM (inactive) with SF-268. In addition, the GI50 in the assay on SF-295 is 20.7 µM (inactive); with SK-MEL-28, 8.43 µM (inactive); with SK-MEL-2 it was 20.8 µM (inactive); in the assay with SK-MEL-5, 9.59 µM (inactive); with SK-OV-3 it was > 100 µM (inactive); in the assay with SR, 3.26 µM (inactive).
For `COCn1cnc2c(=O)n(-c3ccc(C)cc3)c(=S)n(-c3ccc(C)cc3)c21`, the GI50 in the assay with A498, with BT-549, with CCRF-CEM, in the assay with COLO 205, with HCC 2998 and with IGROV-1 was > 100 µM (inactive) throughout. Besides, the GI50 in the assay with KM12, in the assay with M14, in the assay with MCF7, in the assay on NCI-H522, with RPMI-8226 and in the assay with SF-268 was > 100 µM (inactive) each time. For the same compound, the GI50 in the assay with SF-295, with SK-MEL-28, in the assay on SK-MEL-2, in the assay with SK-MEL-5, with SK-OV-3 and in the assay with SR was > 100 µM (inactive) in each case.
`Cc1c(/C=N\NC(=S)N2CCN(C(=S)N/N=C\c3c(C)n(C)n(-c4ccccc4)c3=O)CC2)c(=O)n(-c2ccccc2)n1C`: the GI50 with A498 is 65.3 µM (inactive); in the assay with BT-549, 44 µM (inactive); with COLO 205, > 100 µM (inactive); in the assay with HCC 2998 it was 45.4 µM (inactive); in the assay on KM12, 69.7 µM (inactive); with M14, 57 µM (inactive). Besides, the GI50 with NCI-H522 was 60.7 µM (inactive); in the assay with SF-268, > 100 µM (inactive); in the assay with SF-295, 28.4 µM (inactive); in the assay with SK-MEL-2 it was 13.1 µM (inactive); in the assay on SK-MEL-5, > 100 µM (inactive); in the assay with SK-OV-3, > 100 µM (inactive). In addition, the GI50 with SR was 47.9 µM (inactive).
In the case of `O=S(=O)(c1ccc(NC(=S)N/N=C/c2ccccc2O)cc1)N1CCCCC1`, the GI50 was 0.264 µM (active) in the assay with A498; 37.8 µM (inactive) in the assay on BT-549; < 0.023 µM (active) with CCRF-CEM; 0.773 µM (active) in the assay on COLO 205; 1.73 µM (inactive) in the assay with IGROV-1; 0.0771 µM (active) in the assay with M14. In addition, the GI50 with MCF7 is 0.255 µM (active); in the assay with NCI-H522 it was 1.61 µM (inactive); in the assay on RPMI-8226, 0.214 µM (active); in the assay with SF-268, 0.0446 µM (active); in the assay on SF-295 it was 0.0656 µM (active); in the assay with SK-MEL-28, 1.21 µM (inactive). Moreover, the figures for the GI50 with SK-MEL-2, in the assay with SK-MEL-5 and with SK-OV-3 were 0.459 µM (active), < 0.01 µM (active) and 0.39 µM (active), respectively.
`CC1(C#N)CC(C)(C)C(/C=C2/CC(C)(C)C(/C=C3/OC(=N)CC3(C)C)=N2)=N1` (configuration not stated): the GI50 is 10.5 µM (inactive) in the assay on A498; 32.4 µM (inactive) with CCRF-CEM; 16.9 µM (inactive) in the assay on COLO 205; 32.2 µM (inactive) in the assay with HCC 2998; 17.6 µM (inactive) with IGROV-1; 24.2 µM (inactive) in the assay with KM12. The GI50 was 28.9 µM (inactive) with M14; 12.3 µM (inactive) in the assay with MCF7; 31.4 µM (inactive) in the assay with MDA-N; 14.2 µM (inactive) with NCI-H522; 20 µM (inactive) in the assay with RPMI-8226; 24.3 µM (inactive) in the assay with SF-268. In addition, the GI50 in the assay on SF-295 is 23.7 µM (inactive); with SK-MEL-28 it was 51.9 µM (inactive); with SK-MEL-2, 38.7 µM (inactive); in the assay on SK-MEL-5, 16.6 µM (inactive); in the assay with SK-OV-3, 20.4 µM (inactive); in the assay on SR, 28.5 µM (inactive).
In the case of `COC1(CCO)CC=CCC1(CCO)OC` (configuration not stated), the GI50 with BT-549, with CCRF-CEM, with COLO 205, in the assay with IGROV-1, in the assay on KM12 and in the assay on M14 was > 100 µM (inactive) throughout. Moreover, the GI50 with MCF7, in the assay with MDA-N, in the assay with NCI-H522, in the assay with RPMI-8226, in the assay with SF-268 and in the assay on SF-295 was > 100 µM (inactive) in each case. The GI50 in the assay with SK-MEL-28, with SK-MEL-2, with SK-MEL-5 and in the assay on SK-OV-3 was > 100 µM (inactive) in each case.
For the compound `O=C1CCCC1C(O)(C(F)(F)F)C(F)(F)F` (configuration not stated), the GI50 in the assay on A498, with CCRF-CEM, with COLO 205, in the assay on HCC 2998, in the assay on IGROV-1 and with KM12 was > 100 µM (inactive) each time. The GI50 with M14, in the assay on MCF7, with MDA-N, in the assay on NCI-H522, with RPMI-8226 and with SF-268 was > 100 µM (inactive) in each case. Further, the GI50 with SF-295, in the assay on SK-MEL-28, with SK-MEL-2, with SK-MEL-5 and with SR was > 100 µM (inactive) each time.
For the compound `O=[N+]([O-])c1cc(/N=N/c2c(O)ccc3cc(S(=O)(=O)O)ccc23)c(O)c([N+](=O)[O-])c1`, the GI50 in the assay on BT-549 was > 100 µM (inactive); in the assay on CCRF-CEM, 18.9 µM (inactive); with COLO 205 it was > 100 µM (inactive); with IGROV-1, > 100 µM (inactive); with KM12 it was 31.9 µM (inactive); with M14 it was > 100 µM (inactive). For the same compound, the GI50 in the assay with MDA-N was > 100 µM (inactive); with NCI-H522, > 100 µM (inactive); in the assay on RPMI-8226, > 100 µM (inactive); with SF-268, > 100 µM (inactive); in the assay on SF-295, 44.9 µM (inactive); with SK-MEL-28, > 100 µM (inactive). For the same compound, the GI50 in the assay with SK-MEL-2, in the assay on SK-MEL-5 and in the assay on SK-OV-3 was > 100 µM (inactive) each time.
